# Entries after “also recorded” stand apart in the source; their conditions may differ.
# Key:
# [1] = biological target: T1, hCB2 receptor (Homo sapiens, UniProt P34972); test: biochemical
# From the text: (§3) When the CB1 or CB2 receptor is activated by an agonist, the affinity of the G protein alpha subunit increases with respect to GTP vs. GDP. As a consequence, GDP is displaced from the G protein and GTP or GTPγS binds. If a radioactive label, such as [^35S], is attached to the GTPγS molecule, then the formation of the G protein/[^35S]GTPγS complex can be directly measured using liquid scintillation spectrophotometry.
# (§4) The CB1 and CB2 receptor assays involve membrane preparations purchased from Perkin Elmer (Waltham, Mass.) isolated from a HEK-293 expression system. G-protein coupled signal transduction (GTP-γ-[35S]) assays of test compounds were conducted in an incubation mixture consisting of a test compound (250 nM-1 mM), GDP (20 μM), GTP-γ-[35S] (100 pM), and the hCB1 and hCB2 membrane preparations (0.4 pM) in a total volume of 0.4 mL of assay buffer (50 mM TRIS-HCl, pH 7.4, 1 mM EDTA, 100 mM NaCl, 5 mM MgCl2, 0.5% (w/v) BSA). Nonspecific binding was determined in the presence of 100 μM unlabeled GTP-γ-S, and basal binding was determined in the absence of drug. Duplicate samples were incubated for 1 h at 30° C., and the bound complex was filtered from the reaction mixture as described previously and counted in a liquid scintillation counter. Specific binding was calculated by subtracting nonspecific binding from total binding and dividing by the total basal binding minus nonspecific binding. Data were plotted and analyzed with GraphPad Prism (GraphPad Software, Inc., San Diego, Calif.).
# [2] = biological target: CB1 receptor (Homo sapiens, UniProt P21554); test: biochemical
# From the text: as §3, §4
# [3] = biological target: T1, hCB2 receptor
# From the text: as §3, §4
# [4] = test system: C57Bl mice, bleomycin induced skin fibrosis; test: Bleomycin induced skin fibrosis mouse model of scleroderma; format: in vivo; settings: for inhibition of skin fibrosis: oral gavage 2.5, 5.0 and 10 mg/kg daily, bleomycin s.c. 14 days, sacrifice day 21
# Method: Groups of 8 mice (6-12 week-old C57Bl) received daily s.c. injections of bleomycin (20 ug/mouse) or vehicle for 14 days, followed by one weeks of recovery. In parallel, starting day 1, ultrapure AJA suspended in 2% methylcellulose (MC) or vehicle was administered by oral gavage at 0, 2.5, 5.0 and 10 mg/kg. On day 21, mice were sacrificed. Their skin was harvested and processed for routine histology (H&E, trichrome and picrosirius red stains), immunohistology (paraffin-embedded or frozen samples), in situ hybridization, collagen (SIRCOL) assays, and RNA isolation for real-time qPCR or microarray hybridization. Skin sections were carefully characterized and quantified for dermal inflammation, dermal thickening, collagen accumulation (Trichrome), and collagen cross-linking (Sirius red) in lesional skin.
# [5] = test system: female CD-1 mice; test: Rectal temperature (mouse hypothermia assay); settings: oral 0.05-56 mg/kg, 90 min after administration
# Method: (§1) Compounds were administered at a volume of […] via oral gavage.
# (§2) Female CD-1 mice (20-25 g), obtained from Charles River (Raleigh, N.C.), were used for assessment in hot plate nociception, rectal temperature, and ring immobility assays. Separate mice were used for testing each dose of each compound in this battery of procedures. The mice had free access to food and water when in their home cages. All animals were kept in a temperature-controlled (20-22° C.) environment with a 12-hour light-dark cycle (lights on at 7 a.m.).
# Each mouse was tested in a battery of three tests, in which cannabinoid CB1 agonists produce in vivo effects in mice (Martin et al., 1991): antinociception (hot plate assay), decreased rectal temperature and ring immobility. Prior to administration of the test compound, rectal temperature and baseline latency in the hot plate test were measured in the mice. The latter procedure involved placing the mouse on a heated surface (mouse cold/hot plate analgesia apparatus; Stoelting, Wood Dale, Ill.) at a setting of 55° C. Time until the mouse lifts or licks a paw was measured, whereupon the mouse was removed from the apparatus. […] Subsequently, the mice were placed on a 5.5 cm ring attached at a height of 16 cm to a ring stand, and the amount of time the animals remained motionless during a 5 min period was recorded. In addition, the number of times the mouse fell or jumped off the ring was recorded. […]
# Rectal temperature values were expressed as the difference between control temperature (before injection) and temperature following drug administration (Δ° C.). Antinociception was expressed as the percent maximum possible effect (MPE) using a 30-s maximum test latency as follows: [(test−control)/(30−control)]×100. During assessment for catalepsy, the total amount of time (in seconds) that the mouse remained motionless on the ring apparatus (except for breathing and whisker movement) was measured and was used as an indication of catalepsy-like behavior. […]
# [6] = test system: female CD-1 mice; test: Ring immobility (catalepsy) test
# Method: The cataleptic response was measured using the ring test described by Pertwee (Pertwee R G, The Ring Test. A Quantitative Method of Assessing the Cataleptic Effect of Cannabis in Mice, Br. J. Pharmacol. 46:753-763 (1972)). Mice were placed on a horizontal wire ring 5.5 cm in diameter attached to a 16 cm vertical rod. The hind paws and fore paws were placed at opposite sides of the ring. The ambient temperature was maintained at 30° C. and the environment was free of auditory stimuli and bright lights. The response was calculated as the fraction of time the mouse was immobile over a five (5) minute test period.
# A dose response was conducted for ultrapure AJA to oral doses of 0.05 to 56 mg/kg.
# as §1, §2
# Each mouse was tested in a battery of three tests, in which cannabinoid CB1 agonists produce in vivo effects in mice (Martin et al., 1991): antinociception (hot plate assay), decreased rectal temperature and ring immobility. Prior to administration of the test compound, rectal temperature and baseline latency in the hot plate test were measured in the mice. The latter procedure involved placing the mouse on a heated surface (mouse cold/hot plate analgesia apparatus; Stoelting, Wood Dale, Ill.) at a setting of 55° C. Time until the mouse lifts or licks a paw was measured, whereupon the mouse was removed from the apparatus. […] After measurement of baseline temperature and hot plate latency, mice were administered vehicle or drug via oral gavage. […] Subsequently, the mice were placed on a 5.5 cm ring attached at a height of 16 cm to a ring stand, and the amount of time the animals remained motionless during a 5 min period was recorded. In addition, the number of times the mouse fell or jumped off the ring was recorded. If the mouse fell off the ring more than 5 times, the test was terminated.
# Rectal temperature values were expressed as the difference between control temperature (before injection) and temperature following drug administration (Δ° C.). Antinociception was expressed as the percent maximum possible effect (MPE) using a 30-s maximum test latency as follows: [(test−control)/(30−control)]×100. During assessment for catalepsy, the total amount of time (in seconds) that the mouse remained motionless on the ring apparatus (except for breathing and whisker movement) was measured and was used as an indication of catalepsy-like behavior. This value was divided by 300 s and multiplied by 100 to obtain a percent immobility. If the mouse fell off the ring more than 5 times, the test was terminated and ring immobility data for the mouse were not included in analysis. Separate between-subjects ANOVAs were used to analyze each measure. Significant differences from control (vehicle) were further analyzed with Tukey post hoc tests (α=0.05) as necessary.
# [7] = test system: female CD-1 mice; test: Mouse hot plate test for antinociception; format: in vivo
# [8] = dose response 0.05 to 56 mg/kg oral
# T1 sequence (P34972 whole entry): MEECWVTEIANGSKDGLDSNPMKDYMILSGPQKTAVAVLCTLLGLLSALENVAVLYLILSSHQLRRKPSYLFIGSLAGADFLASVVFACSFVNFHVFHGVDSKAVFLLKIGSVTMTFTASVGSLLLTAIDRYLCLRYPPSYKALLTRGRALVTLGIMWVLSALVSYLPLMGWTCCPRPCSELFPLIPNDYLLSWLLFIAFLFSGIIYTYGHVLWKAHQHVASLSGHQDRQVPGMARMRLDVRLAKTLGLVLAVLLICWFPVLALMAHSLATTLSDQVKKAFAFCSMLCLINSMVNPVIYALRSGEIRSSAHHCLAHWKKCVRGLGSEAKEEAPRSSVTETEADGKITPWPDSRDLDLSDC
# Chain of CB1 receptor (P21554 whole entry): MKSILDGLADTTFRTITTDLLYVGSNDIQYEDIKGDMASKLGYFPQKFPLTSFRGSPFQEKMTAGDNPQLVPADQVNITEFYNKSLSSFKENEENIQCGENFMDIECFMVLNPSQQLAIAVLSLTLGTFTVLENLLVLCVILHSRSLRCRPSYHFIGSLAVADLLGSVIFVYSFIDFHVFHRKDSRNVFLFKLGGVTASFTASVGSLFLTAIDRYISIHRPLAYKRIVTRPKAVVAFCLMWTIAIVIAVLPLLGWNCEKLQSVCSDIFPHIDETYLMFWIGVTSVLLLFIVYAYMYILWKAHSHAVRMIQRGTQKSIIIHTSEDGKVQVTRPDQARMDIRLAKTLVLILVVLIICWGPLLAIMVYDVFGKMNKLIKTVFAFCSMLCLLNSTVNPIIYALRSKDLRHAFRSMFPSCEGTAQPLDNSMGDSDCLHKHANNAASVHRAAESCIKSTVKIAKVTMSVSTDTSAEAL
smiles,measurement,setting,value
"CCCCCCC(C)(C)c1cc(O)c2c(c1)OC(C)(C)[C@@H]1CC=C(C(=O)O)C[C@@H]21 [JBT-101, (6aR,10aR)-3-(1′,1′-dimethylheptyl)-Δ8-tetrahydro-cannabinol-9-carboxylic acid]",EC50,"[1]; hCB2 EC50 Mean (±SEM), GTP-γ-35S turnover, mean of 4 repetitions",1020 ± 92 nM
same,EC50,"[1]; hCB2 EC50 Rep 1, GTP-γ-35S turnover, replicate 1",930 nM
same,EC50,"[1]; hCB2 EC50 Rep 2, GTP-γ-35S turnover, replicate 2",815 nM
same,EC50,"[1]; hCB2 EC50 Rep 3, GTP-γ-35S turnover, replicate 3",1230 nM
same,EC50,"[1]; hCB2 EC50 Rep 4, GTP-γ-35S turnover, replicate 4",1100 nM
same,EC50,"[2]; hCB1 EC50 Mean (±SEM), GTP-γ-35S turnover, mean of 4 repetitions",9.21 ± 2.04 µM
same,EC50,"[2]; hCB1 EC50 Rep 1, GTP-γ-35S turnover, replicate 1",13.7 µM
same,EC50,"[2]; hCB1 EC50 Rep 2, GTP-γ-35S turnover, replicate 2",5.83 µM
same,EC50,"[2]; hCB1 EC50 Rep 3, GTP-γ-35S turnover, replicate 3",11.6 µM
same,EC50,"[2]; hCB1 EC50 Rep 4, GTP-γ-35S turnover, replicate 4",5.66 µM
same,potency in the GTP-gamma-S assay better in the CB2 assay than in the CB1 assay,[3]; FIG. 13,~10 ×
same,difference in potency for activation of CB2 versus CB1 receptors,[3]; GTP-γ-35S EC50 CB1 vs CB2,9 fold
same,inhibition of skin thickening,"[4]; all oral doses, including 1 mg/kg (data not shown)",equally effective
same,inhibition of skin fibrosis,[4],effective at inhibiting skin fibrosis
same,inhibition of skin fibrosis,[4]; listed as ultrapure AJA,effective at all doses tested
same,change in rectal temperature (hypothermia),[5],None of the doses tested produced significant; also recorded: inactive
same,"doses required to see catalepsy compared with AJA (3a) from U.S. Pat. No. 5,338,753",[6]; [8],required much higher doses
same,percent ring immobility in the catalepsy test,"[6]; lower oral doses, up to 10 mg/kg",did not affect this measure
same,percent ring immobility in the catalepsy test,"[6]; oral 30 and 56 mg/kg, vs vehicle, p<0.05",significantly increased percent ring immobility
same,doses at which active in the ring test,"[6]; oral in oil, FIG. 14",≥ 30 mg/kg
same,"doses required to see analgesia compared with AJA from U.S. Pat. No. 5,338,753",[7]; [8],required much higher doses
same,antinociception in the hot plate test (% MPE),"[7]; oral 0.05-56 mg/kg, 90 min after administration, vs vehicle",None of the doses tested produced significant antinociception
same,doses at which active in the mouse hot plate assay,"[7]; oral, FIG. 15",≥ 30 mg/kg
